Reference: BindingDB's records for doi:10.1124/mol.51.2.350 (Schering-Plough Research Institute, 1997)
Square brackets hold non-standard residues; d marks the D form. Peptide text beside a SMILES is read from it. * marks the point of attachment. Phe(4-F) = N[C@@H](Cc1ccc(F)cc1)C(=O)O; hArg = N=C(N)NCCCC[C@H](N)C(=O)O; Cha = N[C@@H](CC1CCCCC1)C(=O)O; X1 = CC(=O)C(Cc1ccccc1)N*

target: Prothrombin (Homo sapiens, UniProt P00734)

Ki [µM]	Molecule
0.024	C[C@H](N)C(=O)N[C@@H](Cc1ccc(F)cc1)C(=O)N[C@@H](CCCN=C(N)N)C(=O)N[C@@H](CC1CCCCC1)C(=O)N[C@@H](CCCCN=C(N)N)C(=O)N[C@@H](Cc1ccccc1)C(N)=O [L-Ala-4-Fluoro-L-Phe-L-Arg-3-cyclohexyl-L-Ala-N-amidino-L-Lys-L-Phe-NH2] (H-A[Phe(4-F)]R[Cha][hArg]F-NH2)
> 10	H-FSLLRN-NH2 [FSLLRN-NH2]
0.168	CC(C)C[C@H](NC(=O)[C@H](CC(C)C)NC(=O)[C@H](Cc1ccccc1)NC(=O)[C@@H](N)CO)C(=O)N[C@@H](CCCN=C(N)N)C(=O)N[C@@H](CC(N)=O)C(N)=O [CAS_141923-40-2]
> 10	CSCC[C@H](NC(=O)[C@H](CC(C)C)NC(=O)CNC(=O)[C@H](Cc1ccccc1)NC(=O)[C@H](Cc1ccccc1)NC(=O)[C@H](CCC(N)=O)NC(=O)[C@H](CCC(N)=O)NC(=O)[C@@H]1CCCN1C(=O)[C@H](CCCCN)NC(=O)[C@@H]1CCCN1C(=O)[C@@H](N)CCCN=C(N)N)C(N)=O [Arg-Pro-Lys-Pro-Gln-Gln-Phe-Phe-Gly-Leu-Met NH2]
> 10	CC(C)C[C@H](NC(=O)CNC(=O)[C@H](CC(N)=O)NC(=O)[C@H](CCCCN)NC(=O)[C@H](CC(=O)O)NC(=O)[C@H](CO)NC(=O)[C@H](Cc1ccccc1)NC(=O)[C@H](CO)NC(=O)[C@H](CCCNC(=N)N)NC(=O)[C@H](Cc1cnc[nH]1)NC(=O)[C@H](CC(N)=O)NC(=O)CNC(=O)[C@@H](NC(=O)[C@H](C)NC(=O)[C@H](Cc1cnc[nH]1)NC(=O)[C@@H]1CCCN1C(=O)CNC(=O)[C@H](CC(C)C)NC(=O)[C@H](CC(C)C)NC(=O)[C@H](Cc1ccc(O)cc1)NC(=O)CNC(=O)[C@H](C)NC(=O)[C@H](CO)NC(=O)[C@H](CC(N)=O)NC(=O)[C@H](CC(C)C)NC(=O)[C@@H](NC(=O)[C@H](Cc1c[nH]c2ccccc12)NC(=O)CN)[C@@H](C)O)C(C)C)C(=O)N[C@H](C(=O)N[C@@H](CO)C(=O)O)[C@@H](C)O [Galanin, Human]
> 10	CC(C)C[C@H](NC(=O)[C@H](CC(C)C)NC(=O)[C@H](Cc1ccccc1)NC(=O)[C@@H](N)CO)C(=O)N[C@@H](CCCN=C(N)N)C(=O)O [SFLLR-OH]
> 10	H-SLIGKV-NH2 [CAS_190383-13-2]
> 10	CCC(C)C(NC(=O)C(Cc1ccc(O)cc1)NC(=O)C(NC(=O)C(CCCN=C(N)N)NC(=O)C(N)CC(=O)O)C(C)C)C(=O)NC(Cc1cnc[nH]1)C(=O)NC(Cc1cnc[nH]1)C(=O)N1CCCC1C(=O)NC(Cc1ccccc1)C(C)=O (centres undefined) [NSC_439662] (H-DRVYIHHP-X1; configuration not given here)

More lines, now with the values behind:

Molecule	Ki [µM]
CSCCC(NC(=O)C(CC(C)C)NC(=O)CNC(=O)C(NC(=O)C(Cc1ccccc1)NC(=O)C(CO)NC(=O)C(CC(=O)O)NC(=O)C(NC(=O)C(CCCCN)NC(=O)C(N)Cc1cnc[nH]1)C(C)O)C(C)C)C(N)=O (stereo not drawn) [Neurokinin alpha]	> 10
CCC(C)C(NC(=O)C(CO)NC(=O)C(CC(N)=O)NC(=O)C(CC(C)C)NC(=O)C(Cc1ccc(O)cc1)NC(=O)C(CCCCN)NC(=O)C(CCCCN)NC(=O)C(NC(=O)C(C)NC(=O)C(CCSC)NC(=O)C(CCC(N)=O)NC(=O)C(CCCCN)NC(=O)C(CCCN=C(N)N)NC(=O)C(CC(C)C)NC(=O)C(CCCN=C(N)N)NC(=O)C(NC(=O)C(Cc1ccc(O)cc1)NC(=O)C(CC(N)=O)NC(=O)C(CC(=O)O)NC(=O)C(NC(=O)C(Cc1ccccc1)NC(=O)C(NC(=O)C(C)NC(=O)C(CC(=O)O)NC(=O)C(CO)NC(=O)C(N)Cc1cnc[nH]1)C(C)C)C(C)O)C(C)O)C(C)C)C(=O)NC(CC(C)C)C(=O)NC(CC(N)=O)C(=O)O (centres undefined) [CAS_37221-79-7]	> 10
CC(=O)O[C@]1(C(C)=O)CC[C@H]2[C@@H]3C[C@H](C)C4=CC(=O)CC[C@]4(C)C3CC[C@@]21C (some centres undefined)	> 10
NC(N)=NCCCC(N)C(=O)N1CCCC1C(=O)N1CCCC1C(=O)NCC(=O)NC(Cc1ccccc1)C(=O)NC(CO)C(=O)N1CCCC1C(=O)NC(Cc1ccccc1)C(=O)O (centres undefined) [CAS_58-82-2]	> 10
CC(C)C[C@H](NC(=O)[C@H](CC(C)C)NC(=O)[C@H](Cc1ccccc1)NC(=O)[C@@H](N)CO)C(=O)N[C@@H](CCCN=C(N)N)C(=O)N[C@@H](CC(N)=O)C(=O)O [SFLLRN-OH]	0.54
CC(C)CC(NC(=O)C(Cc1ccccc1)NC(=O)C(N)CO)C(=O)NC(CC(C)C)C(=O)NC(CCCN=C(N)N)C(=O)NC(CC(N)=O)C(=O)N1CCCC1C(=O)NC(CC(N)=O)C(=O)NC(CC(=O)O)C(=O)NC(CCCCN)C(=O)NC(Cc1ccc(O)cc1)C(=O)NC(CCC(=O)O)C(=O)N1CCCC1C(=O)NC(Cc1ccccc1)C(=O)O (centres undefined) [SFLLRNPNDKYEPF-OH] (H-SFLLRNPNDKYEPF-OH; configuration not given here)	1.1
